Several values for one entry are separate records, joined by “and”; a condition that tells them apart may be missing. Identical values can stand only once. Entries after “also recorded” stand apart in the source; their conditions may differ. Like-named read-outs stand apart in the source and are kept apart here.
Legend:
[1] = test system: MPK3, MPK4 and MPK6 phosphorylation, mik2-1 seedlings; assay: MAPK assay (α-pERK1/2 immunoblot), mik2-1; format: in vivo, Arabidopsis thaliana; set-up: dose or concentration left out as unconfirmed; details: mik2-1, α-pERK1/2 immunoblot
mik2 mutant seedlings = assay: ROS assay (luminol), mik2 mutants; format: in vivo, Arabidopsis thaliana; details: mik2 mutants, 100 nM SCOOPs or 1 µM FocSCOOPL
Procedure: (§1) ROS burst was determined by a luminol-based assay. […] Then, ddH2O was replaced by 200 µL of reaction solution containing 50 µM of luminol, and 10 µg/mL of horseradish peroxidase (Sigma-Aldrich) supplemented with or without 100 nM or 1 μM peptide. Luminescence was measured immediately after adding the solution with a luminometer (Glomax 20/20n, Promega) with a one-second interval for 15 min. The total values of ROS production were indicated as means of the relative light units (RLUs).

MIK2-BAK1 association = assay: Co-immunoprecipitation MIK2-BAK1; format: cell-based, Arabidopsis thaliana; details: protoplasts, MIK2-HA and BAK1-FLAG, 15 min, co-IP
Procedure: For co-IP assays in protoplasts, protoplasts were co-transfected with pHBT-35S::MIK2-HA and pHBT-35S::BAK1-FALG or pHBT-35S::SERK4-FLAG at 50 μg DNA for 500 μL protoplasts at the density of 2 × 10^5/mL for each sample and were incubated for 12 h. After treatment with 1 µM SCOOP peptides for 15 min, samples were collected by centrifugation at 200 × g for 2 min and lysed in 300 μL IP buffer (20 mM Tris-HCl, pH 7.5, 100 mM NaCl, 1 mM EDTA, 2 mM DTT, 10% [v/v] Glycerol, 0.5% [v/v] Triton X-100 and protease inhibitor cocktail from Sigma) by vortexing. After centrifugation at 10,000 × g for 10 min at 4 °C, 30 μL of supernatant was collected for input controls. The remaining supernatant was pre-incubated with protein-G-agarose beads at 4 °C for 1 h with gentle shaking at […] on a rocker. IP was carried out with α-FLAG agarose for 3 h at 4 °C. Beads were collected by 500 × g centrifugation for 2 min and washed three times with washing buffer (20 mM Tris-HCl, pH 7.5, 100 mM NaCl, 1 mM EDTA, 0.1% [v/v] Triton X-100) and once with 50 mM Tris-HCl, pH 7.5. Immunoprecipitated proteins and input proteins were analyzed by immunoblotting with α-HA (1:3000; Roche, Cat # 12013819001) or α-FLAG antibodies (1:3000; Sigma-Aldrich, Cat # A8592).
For co-IP assays in transgenic seedlings, leaves of 4-week-old pMIK2::MIK2-GFP transgenic plants were hand-inoculated with 1 μM SCOOP10^B or SCOOP12 and were treated for 30 min, followed by total protein isolation with extraction buffer (50 mM Tris-HCl, pH 7.5, 150 mM NaCl, 1% [v/v] NP-40 and 1:200 protease inhibitor cocktail from Sigma). Co-IP was carried out the same as for co-IP with protoplasts except that GFP-Trap agarose beads (Chromotek) were used instead. Immunoprecipitated proteins and input proteins were analyzed by immunoblotting with α-GFP (1:3500; Roche, Cat # 11814460001) or α-BAK1 antibodies (1:2000)[64].

p35S::Aequorin seedlings = format: in vivo, Arabidopsis thaliana
[2] = test system: bak1-4 and bak1-5/serk4 mutant seedlings; assay: ROS assay (luminol), coreceptor mutants; format: in vivo, Arabidopsis thaliana
Procedure: as §1

[3] = test system: bik1/pbl1 mutant seedlings; assay: ROS assay (luminol), bik1/pbl1; format: in vivo, Arabidopsis thaliana; details: bik1/pbl1, 100 nM SCOOP12 or 1 µM FocSCOOPL
Procedure: as §1

rbohD mutant seedlings = assay: ROS assay (luminol), rbohD; format: in vivo, Arabidopsis thaliana
Procedure: as §1

MIK2^ECD [4] = target: T1, MIK2^ECD (Arabidopsis thaliana, UniProt Q8VZG8); assay: Isothermal titration calorimetry (ITC); format: binding; details: 25 °C, pH 7.0; 600 μM peptide into 30 μM MIK2^ECD
T1 construct: MIK2^ECD (residues 1–707) and BAK1^ECD (residues 1–220) were amplified by PCR from Col-0 cDNA; 6xHIS (C); made in house; host or cells: High Five insect cells (Bac-to-Bac baculovirus system)

MIK2^ECD-BAK1^ECD = assay: Gel filtration of MIK2^ECD and BAK1^ECD; format: biochemical, Arabidopsis thaliana; details: 0.1 mg peptide, 10 mM Bis-Tris pH 6.0, 100 mM NaCl, on ice 1 h
Procedure: The ECD domains of MIK2 (MIK2^ECD) and BAK1 (BAK1^ECD) fused with a 6 × HIS tag at the C-terminus were expressed using the Bac-to-Bac baculovirus expression system (Invitrogen) in High Five cells at 22 °C[25]. One liter of cells (1.8 × 10^6 cells per mL cultured in the medium from Expression Systems) was infected with 20 mL baculovirus and the media were harvested after 48 h of infection. The secreted MIK2^ECD-6 × HIS and BAK1^ECD-6 × HIS proteins were purified using Ni-NTA (Novagen) and size-exclusion chromatography (Hiload 200, GE Healthcare) in buffer containing 10 mM Bis-Tris pH 6.0 and 100 mM NaCl.
The purified MIK2^ECD proteins (0.5 mg for each) and BAK1^ECD proteins (0.2 mg for each) were incubated together with SCOOP12 or SCOOP12^SS/AA (0.1 mg for each) in a buffer containing 10 mM Bis-Tris, pH 6.0, 100 mM NaCl on ice for 1 h. Then, each of the mixtures was separated by gel filtration (Hiload 200, GE Healthcare) with a flow rate of 0.8 mL/min and an injection volume of […] at 4 °C, and the peak fractions were separated on SDS-PAGE followed by Coomassie blue (CBB) staining.

MIK2^ECD [5] = target: T1, MIK2^ECD; assay: Surface plasmon resonance (SPR); format: binding; details: CM5 chip with immobilized MIK2^ECD
[6] = test system: Arabidopsis WT (Col-0) seedlings; format: in vivo, Arabidopsis thaliana
[7] = test system: mik2-1 and mik2-2 mutant seedlings; format: in vivo, Arabidopsis thaliana; details: individual values, one per line
[8] = test system: MPK3, MPK4 and MPK6 phosphorylation, bak1-4 and bak1-5/serk4 seedlings; assay: MAPK assay (α-pERK1/2 immunoblot), coreceptor mutants; format: in vivo, Arabidopsis thaliana
Procedure: (§2) Ten-day-old seedlings grown vertically on ½MS plates were transferred to ddH2O overnight for recovery. Then, ddH2O was replaced by 100 nM peptides for the indicated time.

[9] = test system: Arabidopsis WT seedling roots; assay: Microscopy of root browning and root meristems, WT; format: in vivo, Arabidopsis thaliana
[10] = test system: MPK3, MPK4 and MPK6 phosphorylation, WT seedlings; assay: MAPK assay (α-pERK1/2 immunoblot), WT; format: in vivo, Arabidopsis thaliana
Procedure: as §2

[11] = test system: WRKY30, WRKY33 and CYP81F2 expression, mik2 seedlings; assay: RT-qPCR of defense genes, mik2 mutants; format: in vivo, Arabidopsis thaliana
[12] = test system: MYB51 promoter, pMYB51::GUS seedling roots; assay: Histochemical GUS staining, pMYB51::GUS; format: in vivo, Arabidopsis thaliana; details: pMYB51::GUS seedlings, 1 µM, 3 h
Excerpt: Stained samples were fixed with a 3:1 ethanol:acetic acid solution overnight and cleared by lactic acid and photographed with the Olympus SZX10 stereoscopic microscope equipped with DP27 camera.

[13] = test system: WRKY30, WRKY33 and CYP81F2 expression, WT seedlings; assay: RT-qPCR of defense genes, WT; format: in vivo, Arabidopsis thaliana
Arabidopsis WT seedlings = assay: ROS assay (luminol), WT seedlings; format: in vivo, Arabidopsis thaliana; details: WT seedlings
Procedure: as §1

[14] = test system: WT roots and leaf protoplasts; assay: TAMRA-SCOOP12 binding and competition in vivo, WT (confocal); set-up: species or system Arabidopsis thaliana; details: 100 nM TAMRA-SCOOP12, 5 min
[15] = test system: mik2-1 roots and leaf protoplasts; assay: TAMRA-SCOOP12 binding in vivo, mik2-1 (confocal); set-up: species or system Arabidopsis thaliana; details: mik2-1, 100 nM TAMRA-SCOOP12, 5 min

T1 sequence (Q8VZG8 44-707): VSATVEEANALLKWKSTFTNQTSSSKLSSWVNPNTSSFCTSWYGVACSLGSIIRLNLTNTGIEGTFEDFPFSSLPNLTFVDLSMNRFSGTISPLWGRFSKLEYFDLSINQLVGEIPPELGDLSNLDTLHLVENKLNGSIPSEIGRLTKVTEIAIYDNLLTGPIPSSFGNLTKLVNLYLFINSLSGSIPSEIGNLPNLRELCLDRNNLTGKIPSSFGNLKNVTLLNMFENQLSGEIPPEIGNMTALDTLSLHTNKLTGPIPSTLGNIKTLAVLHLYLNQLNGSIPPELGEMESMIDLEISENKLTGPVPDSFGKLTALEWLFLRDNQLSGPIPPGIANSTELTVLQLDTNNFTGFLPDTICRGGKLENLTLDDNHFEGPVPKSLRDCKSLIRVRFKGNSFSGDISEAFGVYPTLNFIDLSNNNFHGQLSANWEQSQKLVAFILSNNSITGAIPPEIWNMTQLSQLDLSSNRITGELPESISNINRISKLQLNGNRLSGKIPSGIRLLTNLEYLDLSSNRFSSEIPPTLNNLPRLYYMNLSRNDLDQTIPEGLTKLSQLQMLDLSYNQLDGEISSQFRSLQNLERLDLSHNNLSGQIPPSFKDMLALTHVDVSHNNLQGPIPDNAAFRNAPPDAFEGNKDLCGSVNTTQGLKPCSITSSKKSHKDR

Substance: MAQSWLKEESSSSHSERAGGR [FocSCOOPL, SCOOPL peptide from F. oxysporum f. sp. conglutinans strain Fo5176]
- MAPK activation in mik2 [1]: blocked in mik2-1
- ROS production in mik2 (mik2 mutant seedlings): blocked in mik2
- MIK2-BAK1 association in protoplasts (MIK2-BAK1 association): induces MIK2-BAK1 association
- concentration inducing cytosolic Ca^2+ increase (p35S::Aequorin seedlings; in vivo): 100 nM
- cytosolic Ca^2+ increase (p35S::Aequorin seedlings; in vivo): triggers the cytosolic Ca^2+ increase
- ROS production in bak1-4 ([2]; bak1-4, 100 nM SCOOP12): blocked in mik2 (h), and in bak1-4
- ROS production in bak1-5/serk4 ([2]; bak1-5/serk4, 100 nM SCOOP12 or 1 µM FocSCOOPL): compromised in the bak1-5/serk4
- ROS production in bik1/pbl1 [3]: compromised in the bak1-5/serk4, bik1/pbl1, and rbohD mutants
- ROS production in rbohD (rbohD mutant seedlings): compromised in the bak1-5/serk4, bik1/pbl1, and rbohD mutants

Substance: MGSGASGPVRSAQASQAGGR [SCOOP12SS/AA, Alanine substitutions on two conserved serine residues in the SxS motif of SCOOP12]
- binding to MIK2^ECD, ITC (MIK2^ECD [4]): No binding was detected
- MIK2^ECD-BAK1^ECD dimerization (MIK2^ECD-BAK1^ECD): unable to induce the dimerization between MIK2^ECD and BAK1^ECD
- binding to MIK2^ECD, SPR (MIK2^ECD [5]): nearly no binding
- root growth inhibition of SCOOP12^SS/AA ([6]; Supplementary Fig. 5d, e): abolished its activities to inhibit root growth through MIK2

Substance: RPPTAPIYLPPSKSRKGKGP [SCOOP13, synthesized SCOOP peptide corresponding to the SxS motif]
- Root length (Fig. 3e) ([7]; mik2-1): 22.796 and 23.072 and 22.084 and 23.813 and 22.472 and 23.316 and 25.007 and 26.178 and 24.196 and 22.194
- Root length (Fig. 3e) ([7]; mik2-2): 23.916 and 28.782 and 22.331 and 28.855 and 26.162 and 23.502 and 23.674 and 22.828 and 26.36 and 25.263 and 22.35
- MAPK activation in bak1-4 ([8]; bak1-4): reduced in bak1-4
- MAPK activation in bak1-5/serk4 ([8]; bak1-5/serk4): substantially blocked in bak1-5/serk4
- root browning ([9]; WT seedlings, prolonged treatment): led to brown roots
- root meristem distortion ([9]; WT, 5-day-old seedlings, 1 µM, 48 h, PI staining): distorted root meristems
- root growth inhibition ([6]; in vivo): inhibited root growth to various degrees, with SCOOP10^B and 13 being the most active; also recorded: potent in inhibiting root growth
- MAPK activation in shoots and roots ([10]; Supplementary Fig. 3i): triggered the MAPK activation in both shoots and roots
- CYP81F2 expression (Fig. 3i) ([11]; mik2-1, repeat 1): 0.33
- CYP81F2 expression (Fig. 3i) ([11]; mik2-1, repeat 2): 0.51
- CYP81F2 expression (Fig. 3i) ([11]; mik2-1, repeat 3): 2.20
- CYP81F2 expression (Fig. 3i) ([11]; mik2-1, repeat 4): 5.48
- CYP81F2 expression (Fig. 3i) ([11]; mik2-2, repeat 1): 3.17
- CYP81F2 expression (Fig. 3i) ([11]; mik2-2, repeat 2): 4.70
- CYP81F2 expression (Fig. 3i) ([11]; mik2-2, repeat 3): 4.82
- CYP81F2 expression (Fig. 3i) ([11]; mik2-2, repeat 4): 7.05
- WRKY30, WRKY33 and CYP81F2 expression ([11]; mik2 mutants, 1 µM, 1 h, RT-qPCR): abolished in mik2 mutants
- ROS production, SCOOP13 and 14 relative to other SCOOPs, and Ca^2+ bursts (p35S::Aequorin seedlings; Ca^2+ and ROS bursts, 100 nM): relatively weak activities for Ca^2+ and ROS bursts
- MYB51 promoter activity in roots [12]: induced the promoter activities of MYB51
- WRKY30, WRKY33 and CYP81F2 expression ([13]; 1 µM, 1 h, RT-qPCR): upregulation
- CYP81F2 expression (Fig. 3i) ([13]; repeat 1): 41.34
- CYP81F2 expression (Fig. 3i) ([13]; repeat 2): 47.71
- CYP81F2 expression (Fig. 3i) ([13]; repeat 3): 93.81
- CYP81F2 expression (Fig. 3i) ([13]; repeat 4): 121.82
- ROS production, total luminescence (Fig. 2h) (Arabidopsis WT seedlings; repeat 1): 1290342
- ROS production, total luminescence (Fig. 2h) (Arabidopsis WT seedlings; repeat 2): 1525381
- ROS production, total luminescence (Fig. 2h) (Arabidopsis WT seedlings; repeat 3): 622461

Substance: TAMRA-MGSGASGPVRSSQSSQAGGR [TAMRA-SCOOP12, red fluorescent tetramethylrhodamine (TAMRA)-labeled SCOOP12 peptides at its N-terminus]
- red fluorescent labelling of root tips and leaf protoplasts [14]: Red fluorescent signals were detected
- bioactivity of labelled peptide: root growth inhibition vs SCOOP12 ([6]; Supplementary Fig. 5a, b, MIK2-dependent): slightly lesser extent than SCOOP12
- MAPK activation by labelled peptide vs SCOOP12 ([10]; Supplementary Fig. 5c, MIK2-dependent): slightly lesser extent than SCOOP12
- red fluorescent labelling of root tips and leaf protoplasts [15]: not in mik2-1
